Measured values: PMC11884936, “MDC1 mediates Pellino recruitment to sites of DNA double-strand breaks” (Life Science Alliance, 2025)
“Also recorded” adds a separate entry of the source. Like-named read-outs stand apart in the source and are kept apart here. Square brackets hold non-standard residues; d marks the D form. Peptide text beside a SMILES is read from it. pT = C[C@@H](OP(=O)(O)O)[C@H](N)C(=O)O; pS = N[C@@H](COP(=O)(O)O)C(=O)O

Tests used:
Format in all cases: binding
Pellino 2 FHA = target: T1, Pellino 2 FHA (Homo sapiens, UniProt Q9HAT8); test: Isothermal titration calorimetry of phosphopeptides with PELI2 FHA fragment; details: for DG: ITC Gibbs free energy; for DG / DH / TDS: PELI2 FHA; for DH: ITC change in enthalpy; for TDS: ITC temperature x change in entropy
T1 construct: PELI1 and 2 FHA domains (residues 13–273 and 15–275, respectively); GST (N, cleaved yes); made in house; host or cells: E. coli BL21 (DE3)
T1 sequence (Q9HAT8 15-275): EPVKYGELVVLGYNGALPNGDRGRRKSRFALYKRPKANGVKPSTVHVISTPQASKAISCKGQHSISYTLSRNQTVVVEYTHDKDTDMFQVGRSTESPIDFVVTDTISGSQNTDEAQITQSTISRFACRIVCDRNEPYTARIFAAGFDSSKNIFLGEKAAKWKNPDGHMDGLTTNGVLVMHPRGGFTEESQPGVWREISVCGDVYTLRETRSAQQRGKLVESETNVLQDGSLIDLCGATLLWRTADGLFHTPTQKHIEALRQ
Procedure: (§1) The regions corresponding to the PELI1 and 2 FHA domains (residues 13–273 and 15–275, respectively) were cloned into the pGEX-6P1 vector using BamHI/XhoI restriction sites and expressed as a 3C protease-cleavable N-terminal GST fusion protein in BL21 (DE3) cells (NEB). A 20 ml LB overnight culture was inoculated into 1L of LB medium supplemented with 100 μg/ml ampicillin to an OD600 of 0.05 and incubated at 37°C, 250 rpm until an OD600 of 0.6 was reached, whereupon expression was induced with 1 mM isopropyl ß-D-1-thiogalactopyranoside (IPTG) and overnight incubation at 18°C. Overnight cultures were harvested for 20 min at 4,000g, 4°C and resuspended in 20 ml lysis buffer (50 mM HEPES pH 7.5, 150 mM NaCl, 0.2 mg/ml lysozyme, 20 μg/ml DNase, and 1x complete, EDTA-free protease inhibitor cocktail tablet) before sonication-mediated cell lysis. Insoluble material was removed by centrifugation (21,000g, 20 min) and the GST-FHA fusion proteins were purified from the clarified lysate containers using 1 ml bed volume of pre-equilibrated Glutathione Sepharose 4B beads. After washing with 20 column volumes of Pellino FHA buffer (50 mM HEPES pH 7.5, 150 mM NaCl), the protein was cleaved overnight at 4°C from GST with 1% (vol/vol) GST-3C protease and the flow-through was further purified by gel filtration using a HiLoad 16/60 Superdex 200 pg (Cytiva) column. Purified Pellino FHA domains were concentrated to 50 mg/ml with a 10 kD molecular weight cut-off concentrator (Sartorius).
(§2) For ITC analysis protein and peptides were buffer exchanged into 25 mM HEPES pH 7.0, 200 mM NaCl, 1 mM TCEP. Titrations were carried out using a Microcal PEAQ-ITC (Malvern) using 13 injections of peptide at a typical syringe concentration of 160 μM (1 × 0.4 μl, 12 × 3.0 μl) and FHA concentration of 16 μM in the cell. Data were analyzed with a single-site binding model using Microcal PEAQ-ITC software. Peptide sequences are: MDC1 pT699–AYDLQApTQCFA, MDC1-pT719–[…], MDC1-pT752–AYEVLApTQPFC, MDC1-pT765–AYEDSEpTQPFD, IRAK-pT141(+3Y)–AYSSASpTFLYP, γH2AX–GGKATQApSQEY. All peptides were synthesises with N-terminal acetylation and a C-terminal amide. MDC1 pT699 and pT719 were made with alanine substitutions at the pT+4 position (Leu and Met, respectively) to aid solubility and monodispersity.

Pellino 1 FHA = target: T2, Pellino 1 FHA (Homo sapiens, UniProt Q96FA3); test: Isothermal titration calorimetry of phosphopeptides with PELI1 FHA fragment; details: for DG: ITC Gibbs free energy; for DG / DH / TDS: PELI1 FHA; for DG / DH / TDS / Kd: 25 mM HEPES pH 7.0, 200 mM NaCl, 1 mM TCEP; for DH: ITC change in enthalpy; for TDS: ITC temperature x change in entropy; for Kd: PELI1 FHA (residues 13–273) 16 μM in cell, peptide 160 μM in syringe, single-site binding model
T2 construct: PELI1 and 2 FHA domains (residues 13–273 and 15–275, respectively); GST (N, cleaved yes); made in house; host or cells: E. coli BL21 (DE3)
T2 sequence (Q96FA3 13-273): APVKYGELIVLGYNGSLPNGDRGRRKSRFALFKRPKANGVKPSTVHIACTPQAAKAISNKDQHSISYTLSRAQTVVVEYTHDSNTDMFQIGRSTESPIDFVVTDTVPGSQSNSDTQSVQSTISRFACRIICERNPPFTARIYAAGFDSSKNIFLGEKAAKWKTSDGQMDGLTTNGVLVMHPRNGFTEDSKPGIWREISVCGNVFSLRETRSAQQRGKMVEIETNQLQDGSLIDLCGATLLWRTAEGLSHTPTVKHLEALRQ
Procedure: as §1, §2

MDC1 BRCT-r = target: T3, MDC1 BRCT-r (Homo sapiens, UniProt Q14676); test: Isothermal titration calorimetry of γH2AX phosphopeptide with MDC1 BRCT-repeat fragment
T3 sequence (Q14676 1883-2089 limits assumed): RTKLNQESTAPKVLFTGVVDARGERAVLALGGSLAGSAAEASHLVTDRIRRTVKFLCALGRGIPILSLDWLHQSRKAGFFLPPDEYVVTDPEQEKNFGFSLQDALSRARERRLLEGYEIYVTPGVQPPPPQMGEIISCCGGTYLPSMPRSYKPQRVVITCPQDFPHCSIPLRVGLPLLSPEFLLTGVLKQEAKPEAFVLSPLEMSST
Procedure: as §2

[1] = 25 mM HEPES pH 7.0, 200 mM NaCl, 1 mM TCEP

Compound	DG (Pellino 2 FHA; [1]) [kcal/mol]	DH (Pellino 2 FHA; [1]) [kcal/mol]	TDS (Pellino 2 FHA; [1]) [kcal/mol]	DG (Pellino 1 FHA) [kcal/mol]	DH (Pellino 1 FHA) [kcal/mol]	TDS (Pellino 1 FHA) [kcal/mol]	Kd (Pellino 1 FHA; ITC, read-out: Kd) [nM]	Kd (Pellino 2 FHA; ITC, PELI2 FHA (residues 15–275) 16 μM in cell, peptide 160 μM in syringe, 25 mM HEPES pH 7.0, 200 mM NaCl, 1 mM TCEP, single-site binding model)	Kd (Pellino 1 FHA; ITC)	DG (MDC1 BRCT-r; ITC Gibbs free energy, MDC1 BRCT-r) [kcal/mol]	DH (MDC1 BRCT-r; ITC change in enthalpy, MDC1 BRCT-r) [kcal/mol]	TDS (MDC1 BRCT-r; ITC temperature x change in entropy, MDC1 BRCT-r) [kcal/mol]	Kd (MDC1 BRCT-r; ITC, MDC1 BRCT-repeat fragment, 25 mM HEPES pH 7.0, 200 mM NaCl, 1 mM TCEP, single-site binding model) [nM]	tighter affinity than the other TQXF phosphopeptides (Pellino 1 FHA; ITC, compared with the other MDC1 TQXF phosphopeptides)	interaction detected by ITC (in words) (Pellino 2 FHA; ITC, N-terminal PELI2 fragment, listed as γH2AX phosphopeptide)	interaction detected by ITC (in words) (Pellino 1 FHA; ITC, N-terminal PELI1 fragment (13–273), listed as γH2AX phosphopeptide)	interaction detected by ITC (in words) (MDC1 BRCT-r; ITC, purified MDC1 BRCT-repeat fragment, listed as γH2AX phosphopeptide)
CC(=O)N[C@@H](C)C(=O)N[C@@H](Cc1ccc(O)cc1)C(=O)N[C@@H](CCC(=O)O)C(=O)N[C@H](C(=O)N[C@@H](CC(C)C)C(=O)N[C@@H](C)C(=O)N[C@H](C(=O)N[C@@H](CCC(N)=O)C(=O)N1CCC[C@H]1C(=O)N[C@@H](Cc1ccccc1)C(=O)N[C@@H](CS)C(N)=O)[C@@H](C)OP(=O)(O)O)C(C)C [MDC1-pT752] (Ac-AYEVLA[pT]QPFC-NH2)	-8.15	-28.2	-20	-8.1	-18.5	-10.3	1140	–	–	–	–	–	–	–	–	–	–
CC(=O)N[C@@H](C)C(=O)N[C@@H](Cc1ccc(O)cc1)C(=O)N[C@@H](CC(=O)O)C(=O)N[C@@H](CC(C)C)C(=O)N[C@@H](CCC(N)=O)C(=O)N[C@@H](C)C(=O)N[C@H](C(=O)N[C@@H](CCC(N)=O)C(=O)N[C@@H](CS)C(=O)N[C@@H](Cc1ccccc1)C(=O)N[C@@H](C)C(N)=O)[C@@H](C)OP(=O)(O)O [MDC1-pT699] (Ac-AYDLQA[pT]QCFA-NH2)	-8.13	-19.9	-11.8	-7.77	-18.5	-10.7	–	–	–	–	–	–	–	–	–	–	–
CC(=O)N[C@@H](C)C(=O)N[C@@H](Cc1ccc(O)cc1)C(=O)N[C@@H](CCC(=O)O)C(=O)N[C@@H](CC(=O)O)C(=O)N[C@@H](CCC(=O)O)C(=O)N1CCC[C@H]1C(=O)N[C@H](C(=O)N[C@@H](CCC(N)=O)C(=O)N[C@@H](C)C(=O)N[C@@H](Cc1ccccc1)C(=O)N[C@@H](C)C(N)=O)[C@@H](C)OP(=O)(O)O [MDC1-pT719] (Ac-AYEDEP[pT]QAFA-NH2)	-8.08	-34.7	-26.5	-8.13	-21.8	-13.7	1140	–	–	–	–	–	–	–	–	–	–

The next lines start with results.

DG (Pellino 2 FHA; [1]) [kcal/mol]	DH (Pellino 2 FHA; [1]) [kcal/mol]	TDS (Pellino 2 FHA; [1]) [kcal/mol]	DG (Pellino 1 FHA) [kcal/mol]	DH (Pellino 1 FHA) [kcal/mol]	TDS (Pellino 1 FHA) [kcal/mol]	Kd (Pellino 1 FHA; ITC, read-out: Kd) [nM]	Kd (Pellino 2 FHA; ITC, PELI2 FHA (residues 15–275) 16 μM in cell, peptide 160 μM in syringe, 25 mM HEPES pH 7.0, 200 mM NaCl, 1 mM TCEP, single-site binding model)	Kd (Pellino 1 FHA; ITC)	DG (MDC1 BRCT-r; ITC Gibbs free energy, MDC1 BRCT-r) [kcal/mol]	DH (MDC1 BRCT-r; ITC change in enthalpy, MDC1 BRCT-r) [kcal/mol]	TDS (MDC1 BRCT-r; ITC temperature x change in entropy, MDC1 BRCT-r) [kcal/mol]	Kd (MDC1 BRCT-r; ITC, MDC1 BRCT-repeat fragment, 25 mM HEPES pH 7.0, 200 mM NaCl, 1 mM TCEP, single-site binding model) [nM]	tighter affinity than the other TQXF phosphopeptides (Pellino 1 FHA; ITC, compared with the other MDC1 TQXF phosphopeptides)	Compound	interaction detected by ITC (in words) (Pellino 2 FHA; ITC, N-terminal PELI2 fragment, listed as γH2AX phosphopeptide)	interaction detected by ITC (in words) (Pellino 1 FHA; ITC, N-terminal PELI1 fragment (13–273), listed as γH2AX phosphopeptide)	interaction detected by ITC (in words) (MDC1 BRCT-r; ITC, purified MDC1 BRCT-repeat fragment, listed as γH2AX phosphopeptide)
–	–	–	–	–	–	–	N.D.B.	N.D.B.	-8.27	-13.9	-5.62	850	–	CC(=O)NCC(=O)NCC(=O)N[C@@H](CCCCN)C(=O)N[C@@H](C)C(=O)N[C@H](C(=O)N[C@@H](CCC(N)=O)C(=O)N[C@@H](C)C(=O)N[C@@H](COP(=O)(O)O)C(=O)N[C@@H](CCC(N)=O)C(=O)N[C@@H](CCC(=O)O)C(=O)N[C@@H](Cc1ccc(O)cc1)C(N)=O)[C@@H](C)O [Peptide H2AX-pS139, reference compound] (Ac-GGKATQA[pS]QEY-NH2)	did not detect any interaction; also recorded: no detectable interactions	did not detect any interaction; also recorded: no detectable interactions	bound tightly; also recorded: tight binding
-8.77	-32.7	-23.9	-9.08	-22	-12.9	230	–	–	–	–	–	–	5–10 fold	CC(=O)N[C@@H](C)C(=O)N[C@@H](Cc1ccc(O)cc1)C(=O)N[C@@H](CCC(=O)O)C(=O)N[C@@H](CC(=O)O)C(=O)N[C@@H](CO)C(=O)N[C@@H](CCC(=O)O)C(=O)N[C@H](C(=O)N[C@@H](CCC(N)=O)C(=O)N1CCC[C@H]1C(=O)N[C@@H](Cc1ccccc1)C(=O)N[C@@H](CC(=O)O)C(N)=O)[C@@H](C)OP(=O)(O)O [MDC1-pT765] (Ac-AYEDSE[pT]QPFD-NH2)	–	–	–
